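Five compound concentrations were applied to cells in 96-well plates for 48 hours; endpoints were derived by simple linear interpolation of the resulting dose-response curve. GI50: concentration for 50% inhibition of growth.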 Calls of active or inactive are those of the source. Cut-off read from the data, not from the text of the source: active = GI50 up to about 1.1 µM and inactive = higher.
How the values were obtained:
Experiment in all cases: NCI-60 cell line screen, 48 h
[1] = tested on: NCI-H226
[2] = tested on: SK-MEL-28
[3] = tested on: U-251
[4] = tested on: HCT-116
[5] = tested on: EKVX
[6] = tested on: SW-620
[7] = tested on: NCI-H23
[8] = tested on: OVCAR-8
[9] = tested on: SK-OV-3
[10] = tested on: T47D
[11] = tested on: K562
[12] = tested on: MDA-MB-231
[13] = tested on: BT-549
[14] = tested on: A498
[15] = tested on: ACHN
[16] = tested on: RPMI-8226
[17] = tested on: MDA-MB-435
[18] = tested on: NCI-H522
[19] = tested on: HOP-62

Measured: GI50

Cc1[nH]c2ncn(N)c(=N)c2c1Cc1ccccc1
inactive: [1] > 100 µM | [2] > 100 µM | [3] > 100 µM | [4] > 100 µM | [5] > 100 µM | [6] > 100 µM | [7] > 100 µM | [8] > 100 µM | [9] > 100 µM | [10] 4.35 µM | [11] > 100 µM | [12] > 100 µM | [13] > 100 µM | [14] > 100 µM | [15] > 100 µM | [16] > 100 µM | [17] 34.6 µM | [18] 49.2 µM | [19] 47.2 µM

COC12C=CC(CC1)C(C)(C)C2=O (centres undefined)
inactive: [1] > 100 µM | [2] > 100 µM | [3] > 100 µM | [4] > 100 µM | [5] > 100 µM | [6] > 100 µM | [7] > 100 µM | [8] > 100 µM | [9] > 100 µM | [10] > 100 µM | [11] > 100 µM | [12] > 100 µM | [13] > 100 µM | [14] > 100 µM | [15] > 100 µM | [16] > 100 µM | [17] > 100 µM | [18] > 100 µM | [19] > 100 µM

OCCCNc1[nH]cnc2nncc1-2
inactive: [1] > 100 µM | [2] > 100 µM | [3] > 100 µM | [4] > 100 µM | [5] > 100 µM | [6] > 100 µM | [7] > 100 µM | [8] > 100 µM | [9] > 100 µM | [10] > 100 µM | [11] > 100 µM | [12] > 100 µM | [13] > 100 µM | [14] > 100 µM | [15] > 100 µM | [16] > 100 µM | [17] > 100 µM | [18] > 100 µM | [19] > 100 µM

CC(C)C(=O)CP(=O)(O)O
inactive: [1] > 100 µM | [2] > 100 µM | [3] > 100 µM | [4] > 100 µM | [5] 23.4 µM | [6] > 100 µM | [7] > 100 µM | [8] > 100 µM | [9] > 100 µM | [10] > 100 µM | [11] > 100 µM | [12] > 100 µM | [13] > 100 µM | [14] > 100 µM | [15] > 100 µM | [16] > 100 µM | [17] > 100 µM | [18] > 100 µM | [19] > 100 µM

Cc1cccc2c1c(=O)c1c(O)c3c(cc1n2C)OC(C)(C)C=C3
inactive: [1] 6.46 µM | [2] > 10 µM | [3] > 10 µM | [4] > 10 µM | [5] > 10 µM | [6] > 10 µM | [7] > 10 µM | [8] > 10 µM | [9] > 10 µM | [10] > 10 µM | [11] > 10 µM | [12] > 10 µM | [13] > 10 µM | [14] > 10 µM | [15] > 10 µM | [16] > 10 µM | [17] > 10 µM | [18] > 10 µM | [19] > 10 µM

O=C(O)C(Cc1ccc2c(c1)CCC2)(Cc1ccc2c(c1)CCC2)C(=O)O
inactive: [1] > 100 µM | [2] > 100 µM | [3] > 100 µM | [4] > 100 µM | [5] > 100 µM | [6] > 100 µM | [7] > 100 µM | [8] > 100 µM | [9] > 100 µM | [10] > 100 µM | [11] > 100 µM | [12] 29.2 µM | [13] > 100 µM | [14] > 100 µM | [15] > 100 µM | [16] > 100 µM | [17] > 100 µM | [18] > 100 µM | [19] > 100 µM

— ChEMBL document CHEMBL1201862, “PubChem BioAssay data set” (2004)
